Read-outs that look alike come from different tables or passages of the source. *1 amine or outer side, *2 acyl side, *3 side chain or, on linkers, in order; H or OH if unused. Where a SMILES comes first, the peptide text is derived from it. Side-chain parts run from the residue outwards. [ ]: non-standard residue; d: D form. The star is where a group is joined. C20 diacid = O=C(O)CCCCCCCCCCCCCCCCCCC(=O)*; C18 diacid = O=C(O)CCCCCCCCCCCCCCCCC(=O)*; γGlu = O=C(O)[C@H](CCC(=O)[*:2])N[*:1]; AEEA = NCCOCCOCC(=O)O; Aib = CC(C)(N)C(=O)O
Experiments:
human GLP-1 R = target: T1, human GLP-1 R (Homo sapiens, UniProt P43220); assay: Human GLP-1 receptor (GLP-1 R) activity assay, cAMP induction (AlphaScreen) in HEK293 cells; type: cell-based
T1 construct: expressed in transfected cells
Procedure, shortened: (§1)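 Stable HEK293 clones expressing human GIP R or GLP-1 R, seeded 1 day before; cells washed in Tyrode's buffer (10 mM HEPES, pH 7.4), stimulated, then lysed. cAMP measured by AlphaScreen bead competition (1 h, room temperature, dark). EC50 = concentration giving half-maximal cAMP elevation, from curves of absolute cAMP (nM) vs log concentration.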

[1] = Pharmacokinetics of selected compounds in mice; type: in vivo, C57BL/6J mice; conditions: male, C57BL/6J, mouse, plasma; for bioavailability: subcutaneous, AUCinf (s.c.)/AUCinf (i.v.)x100, values marked * capped to 100%
Procedure: Pharmacokinetics of Selected Compounds in Mice
C57BL/6J mice (males with a body weight of approximately 25 g) were given either a single subcutaneous (s.c.) bolus or a single intravenous (i.v.) bolus of each peptide to be tested.
Following s.c. administration of the selected compounds (50, 100 or 200 nmol/kg), blood samples were drawn at 8 (eight) timepoints up to 72 hours post-dose. Following i.v. administration of the selected compounds (50, 100 or 200 nmol/kg), blood samples were drawn at 8 (eight) timepoints up to 48 hours post-dose. Blood samples were drawn by sublingual bleeding. The dosing vehicle was a phosphate buffer containing mannitol (pH 7.5).
At each sampling time point, samples from two mice were drawn, i.e. 16 mice were included for each compound and each administration route. The mice were euthanized immediately after blood sampling by cervical dislocation. Plasma samples were analyzed after solid phase extraction (SPE) or protein precipitation followed by liquid chromatography mass spectrometry (LC-MS/MS). Mean plasma concentrations were used for calculation of the pharmacokinetic parameters using the non-compartmental approach in Phoenix WinNonlin 6.3. Plasma terminal elimination half-life (T½) was determined as […] where λz is the magnitude of the slope of the log linear regression of the log concentration versus time profile during the terminal phase. Bioavailability was determined as AUCinf (s.c.)/AUCinf (i.v.)×100, where AUCinf is the area under the plasma concentration−time curve extrapolated to infinity (AUCinf=AUClast+Clast/λz, where Clast is the last observed plasma concentration). Tmax is the post-dose time where the maximal plasma concentration was observed.

human GIP R = target: T2, human GIP R (Homo sapiens, UniProt P48546); assay: Human GIP receptor (GIP R) activity assay, cAMP induction (AlphaScreen) in HEK293 cells; type: cell-based; conditions: read-out: hGIP-R cAMP EC50 average value
T2 construct: expressed in transfected cells
T2 sequence (P48546 22-466): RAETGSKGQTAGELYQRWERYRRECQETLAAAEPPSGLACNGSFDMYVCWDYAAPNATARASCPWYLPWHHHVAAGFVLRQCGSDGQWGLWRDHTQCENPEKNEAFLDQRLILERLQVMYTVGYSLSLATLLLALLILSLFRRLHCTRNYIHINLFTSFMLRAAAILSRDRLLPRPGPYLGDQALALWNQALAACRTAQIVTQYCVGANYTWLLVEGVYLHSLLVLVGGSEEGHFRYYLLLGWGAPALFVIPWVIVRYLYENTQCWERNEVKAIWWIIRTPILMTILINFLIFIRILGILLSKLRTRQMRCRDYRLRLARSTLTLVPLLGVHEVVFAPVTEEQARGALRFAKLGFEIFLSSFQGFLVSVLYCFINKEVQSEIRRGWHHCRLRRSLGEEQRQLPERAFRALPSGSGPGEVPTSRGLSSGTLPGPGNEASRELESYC
Procedure, shortened: as §1

[2] = target: T3, human GIP receptor (human) (UniProt P48546); assay: cell-based or functional assay
T3 sequence: T2 sequence (P48546 22-466)

[3] = Table 2, HEK293 cells expressing human GLP-1 R, read-out: hGLP1-R cAMP EC50 average value
[4] = Table 3, most comprehensive data, read-out: hGLP-1-R cAMP EC50 average value
[5] = iv, single i.v. bolus, read-out: T½ terminal elimination half-life, i.v. (converted)
[6] = sc, single s.c. bolus, read-out: T½ terminal elimination half-life, s.c. (converted)
[7] = Table 2, HEK293 cells expressing human GIP R
[8] = Table 3, most comprehensive data

T1 sequence (P43220 24-463): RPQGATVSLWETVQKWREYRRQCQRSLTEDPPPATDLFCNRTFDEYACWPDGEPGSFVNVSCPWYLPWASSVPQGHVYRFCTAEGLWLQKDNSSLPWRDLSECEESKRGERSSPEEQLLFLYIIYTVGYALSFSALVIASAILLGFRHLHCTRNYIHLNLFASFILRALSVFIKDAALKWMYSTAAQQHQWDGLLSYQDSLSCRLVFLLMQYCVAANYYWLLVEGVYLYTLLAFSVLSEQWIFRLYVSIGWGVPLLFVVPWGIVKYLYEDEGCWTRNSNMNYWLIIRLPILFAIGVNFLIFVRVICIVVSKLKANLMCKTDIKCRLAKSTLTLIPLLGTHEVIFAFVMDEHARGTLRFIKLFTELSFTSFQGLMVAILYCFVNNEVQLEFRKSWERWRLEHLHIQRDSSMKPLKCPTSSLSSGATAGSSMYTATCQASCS

| EC50, hGIP-R cAMP [2] | Compound | EC50 (human GLP-1 R; [3]) | EC50 (human GLP-1 R; Table 2a, secondary assay study, read-out: hGLP1-R cAMP EC50 average value) | EC50 (human GLP-1 R; [4]) | half-life [1, 5] | bioavailability [1] | Tmax ([1]; sc, single s.c. bolus) | half-life [1, 6] | EC50 (human GIP R; [7]) | EC50 (human GIP R; Table 2a, secondary assay study) | EC50 (human GIP R; [8]) |
| --- | --- | --- | --- | --- | --- | --- | --- | --- | --- | --- | --- |
| – | CC[C@H](C)[C@H](NC(=O)[C@H](CO)NC(=O)[C@H](Cc1ccc(O)cc1)NC(=O)[C@H](CC(=O)O)NC(=O)[C@H](CO)NC(=O)[C@@H](NC(=O)[C@H](Cc1ccccc1)NC(=O)[C@@H](NC(=O)CNC(=O)[C@H](CCC(=O)O)NC(=O)C(C)(C)NC(=O)[C@@H](N)Cc1ccc(O)cc1)[C@@H](C)O)[C@@H](C)O)C(=O)N[C@@H](Cc1ccc(O)cc1)C(=O)N[C@@H](CC(C)C)C(=O)N[C@@H](CC(=O)O)C(=O)N[C@@H](CCCCN)C(=O)N[C@@H](CCCCNC(=O)COCCOCCNC(=O)COCCOCCNC(=O)CC[C@H](NC(=O)CCCCCCCCCCCCCCCCCCC(=O)O)C(=O)O)C(=O)N[C@@H](C)C(=O)N[C@@H](CCC(N)=O)C(=O)N[C@@H](CCCNC(=N)N)C(=O)N[C@@H](C)C(=O)N[C@@H](Cc1ccccc1)C(=O)N[C@H](C(=O)N[C@@H](CCC(=O)O)C(=O)N[C@@H](Cc1c[nH]c2ccccc12)C(=O)N[C@@H](CC(C)C)C(=O)N[C@@H](CC(C)C)C(=O)N[C@@H](C)C(=O)N[C@@H](CCC(N)=O)C(=O)NCC(=O)N1CCC[C@H]1C(=O)N[C@@H](CO)C(=O)N[C@@H](CO)C(=O)NCC(=O)N[C@@H](C)C(=O)N1CCC[C@H]1C(=O)N1CCC[C@H]1C(=O)N1CCC[C@H]1C(=O)N[C@@H](CO)C(N)=O)C(C)C [Compound 2] (H-Y[Aib]EGTFTSDYSIYLDKK([AEEA-AEEA-γGlu-C20 diacid])AQRAFVEWLLAQGPSSGAPPPS-NH2) | 0.0083 nM | 0.011 nM | 0.011 nM | 996 min | 83% | 6 h | 990 min | 4.9 pM | 8 pM | 8 pM |
| – | CC[C@H](C)[C@H](NC(=O)[C@H](CO)NC(=O)[C@H](Cc1ccc(O)cc1)NC(=O)[C@H](CC(=O)O)NC(=O)[C@H](CO)NC(=O)[C@@H](NC(=O)[C@H](Cc1ccccc1)NC(=O)[C@@H](NC(=O)CNC(=O)[C@H](CCC(=O)O)NC(=O)C(C)(C)NC(=O)[C@@H](N)Cc1ccc(O)cc1)[C@@H](C)O)[C@@H](C)O)C(=O)N[C@@H](C)C(=O)N[C@@H](CC(C)C)C(=O)N[C@@H](CCC(=O)O)C(=O)N[C@@H](CCCCN)C(=O)N[C@@H](CCCCNC(=O)COCCOCCNC(=O)COCCOCCNC(=O)CC[C@H](NC(=O)CCCCCCCCCCCCCCCCC(=O)O)C(=O)O)C(=O)N[C@@H](C)C(=O)N[C@@H](CCC(N)=O)C(=O)N[C@@H](CCCNC(=N)N)C(=O)N[C@@H](C)C(=O)N[C@@H](Cc1ccccc1)C(=O)N[C@H](C(=O)N[C@@H](CCC(=O)O)C(=O)N[C@@H](Cc1c[nH]c2ccccc12)C(=O)N[C@@H](CC(C)C)C(=O)N[C@@H](CC(C)C)C(=O)N[C@@H](C)C(=O)N[C@@H](CCC(N)=O)C(=O)N[C@@H](CCCCN)C(N)=O)C(C)C [Compound 16] (H-Y[Aib]EGTFTSDYSIALEKK([AEEA-AEEA-γGlu-C18 diacid])AQRAFVEWLLAQK-NH2) | 0.015 nM | – | – | 444 min | 50% | 6 h | – | 8.1 pM | – | 8 pM |
| – | CC[C@H](C)[C@H](NC(=O)[C@H](CO)NC(=O)[C@H](CC(C)C)NC(=O)[C@H](CC(=O)O)NC(=O)[C@H](CO)NC(=O)[C@@H](NC(=O)[C@H](Cc1ccccc1)NC(=O)[C@@H](NC(=O)CNC(=O)[C@H](CCC(=O)O)NC(=O)C(C)(C)NC(=O)[C@@H](N)Cc1ccc(O)cc1)[C@@H](C)O)[C@@H](C)O)C(=O)N[C@@H](C)C(=O)N[C@@H](CC(C)C)C(=O)N[C@@H](CCC(=O)O)C(=O)N[C@@H](CCCCN)C(=O)N[C@@H](CCCCNC(=O)COCCOCCNC(=O)COCCOCCNC(=O)CC[C@H](NC(=O)CCCCCCCCCCCCCCCCCCC(=O)O)C(=O)O)C(=O)N[C@@H](C)C(=O)N[C@@H](CCC(N)=O)C(=O)N[C@@H](CCCNC(=N)N)C(=O)N[C@@H](C)C(=O)N[C@@H](Cc1ccccc1)C(=O)N[C@H](C(=O)N[C@@H](CCC(=O)O)C(=O)N[C@@H](Cc1c[nH]c2ccccc12)C(=O)N[C@@H](CC(C)C)C(=O)N[C@@H](CC(C)C)C(=O)N[C@@H](C)C(=O)N[C@@H](CCC(N)=O)C(=O)N[C@@H](CCCCN)C(N)=O)C(C)C [Compound 28] (H-Y[Aib]EGTFTSDLSIALEKK([AEEA-AEEA-γGlu-C20 diacid])AQRAFVEWLLAQK-NH2) | 0.017 nM | – | 0.015 nM | 816 min | 93% | 2 h | 846 min | 24 pM | – | – |
| – | CC[C@H](C)[C@H](NC(=O)[C@H](CO)NC(=O)[C@H](Cc1ccc(O)cc1)NC(=O)[C@H](CC(=O)O)NC(=O)[C@H](CO)NC(=O)[C@@H](NC(=O)[C@H](Cc1ccccc1)NC(=O)[C@@H](NC(=O)CNC(=O)[C@H](CCC(=O)O)NC(=O)C(C)(C)NC(=O)[C@@H](N)Cc1ccc(O)cc1)[C@@H](C)O)[C@@H](C)O)C(=O)N[C@@H](C)C(=O)N[C@@H](CC(C)C)C(=O)N[C@@H](CCC(=O)O)C(=O)N[C@@H](CCCCN)C(=O)N[C@@H](CCCCNC(=O)COCCOCCNC(=O)COCCOCCNC(=O)CC[C@H](NC(=O)CCCCCCCCCCCCCCCCCCC(=O)O)C(=O)O)C(=O)N[C@@H](C)C(=O)N[C@@H](CCC(N)=O)C(=O)N[C@@H](CCCNC(=N)N)C(=O)N[C@@H](C)C(=O)N[C@@H](Cc1ccccc1)C(=O)N[C@H](C(=O)N[C@@H](CCC(=O)O)C(=O)N[C@@H](Cc1c[nH]c2ccccc12)C(=O)N[C@@H](CC(C)C)C(=O)N[C@@H](CC(C)C)C(=O)N[C@@H](C)C(=O)N[C@@H](CCC(N)=O)C(=O)NCC(=O)N1CCC[C@H]1C(=O)N[C@@H](CO)C(=O)N[C@@H](CO)C(=O)NCC(=O)N[C@@H](C)C(=O)N1CCC[C@H]1C(=O)N1CCC[C@H]1C(=O)N1CCC[C@H]1C(=O)N[C@@H](CO)C(N)=O)C(C)C [Compound 31] (H-Y[Aib]EGTFTSDYSIALEKK([AEEA-AEEA-γGlu-C20 diacid])AQRAFVEWLLAQGPSSGAPPPS-NH2) | 0.016 nM | – | 0.017 nM | 702 min | 88% | 8 h | 906 min | 7 pM | – | 8 pM |
| > 10 nM | hGLP-1 (from UniProt P01275 92-128) (ligand) | – | – | – | – | – | – | – | – | – | – |
| – | CC[C@H](C)[C@H](NC(=O)[C@H](CO)NC(=O)[C@H](CC(C)C)NC(=O)[C@H](CC(=O)O)NC(=O)[C@H](CO)NC(=O)[C@@H](NC(=O)[C@H](Cc1ccccc1)NC(=O)[C@@H](NC(=O)CNC(=O)[C@H](CCC(=O)O)NC(=O)C(C)(C)NC(=O)[C@@H](N)Cc1ccc(O)cc1)[C@@H](C)O)[C@@H](C)O)C(=O)N[C@@H](C)C(=O)N[C@@H](CC(C)C)C(=O)N[C@@H](CCC(=O)O)C(=O)N[C@@H](CCCCN)C(=O)N[C@@H](CCCCNC(=O)COCCOCCNC(=O)COCCOCCNC(=O)CC[C@H](NC(=O)CCCCCCCCCCCCCCCCCCC(=O)O)C(=O)O)C(=O)N[C@@H](C)C(=O)N[C@@H](CCC(N)=O)C(=O)N[C@@H](CCCNC(=N)N)C(=O)N[C@@H](C)C(=O)N[C@@H](Cc1ccccc1)C(=O)N[C@H](C(=O)N[C@@H](CCC(=O)O)C(=O)N[C@@H](Cc1c[nH]c2ccccc12)C(=O)N[C@@H](CC(C)C)C(=O)N[C@@H](CC(C)C)C(=O)N[C@@H](C)C(=O)N[C@@H](CCC(N)=O)C(=O)N[C@@H](CCCCN)C(=O)N1CCC[C@H]1C(=O)N[C@@H](CO)C(=O)N[C@@H](CO)C(=O)NCC(=O)N[C@@H](C)C(=O)N1CCC[C@H]1C(=O)N1CCC[C@H]1C(=O)N1CCC[C@H]1C(=O)N[C@@H](CO)C(N)=O)C(C)C [Compound 34] (H-Y[Aib]EGTFTSDLSIALEKK([AEEA-AEEA-γGlu-C20 diacid])AQRAFVEWLLAQKPSSGAPPPS-NH2) | 0.015 nM | – | – | 894 min | 79% | 8 h | 1030 min | 12 pM | – | – |

Reference: patent US10093713B2, “GIP-GLP-1 dual agonist compounds and methods” (priority 2013, dated 2018)
